According to ChEMBL document CHEMBL4507315 (2021):

What was measured:
[1] = molecular target: Homeodomain-interacting protein kinase 3 (Homo sapiens) (UniProt Q9H422); settings: Compound concentration 100.0 nM
[2] = test system: Tyrosine-protein kinase ABL1 (Homo sapiens), P00519 [E255K]; settings: Compound concentration 100.0 nM
[3] = molecular target: Ephrin type-B receptor 6 (Homo sapiens) (UniProt O15197); settings: Compound concentration 100.0 nM
[4] = molecular target: Serine/threonine-protein kinase Nek2 (Homo sapiens) (UniProt P51955); settings: Compound concentration 100.0 nM
[5] = molecular target: Receptor tyrosine-protein kinase erbB-3 (Homo sapiens) (UniProt P21860); settings: Compound concentration 100.0 nM
[6] = molecular target: Serine/threonine-protein kinase MAK (Homo sapiens) (UniProt P20794); settings: Compound concentration 100.0 nM
[7] = molecular target: BDNF/NT-3 growth factors receptor (Homo sapiens) (UniProt Q16620); settings: Compound concentration 100.0 nM
[8] = molecular target: GABA-A receptor; anion channel (Rattus norvegicus) (UniProt O09028+P15431+P18506+P18508+P19969+P20236+P23574+P23576+P28471+P28473+P30191+P62813+P63079+P63138+Q91ZM7+Q9ES14); settings: Compound concentration 10.0 uM
[9] = molecular target: Sodium-dependent serotonin transporter (Homo sapiens) (UniProt P31645); settings: Compound concentration 10.0 uM
[10] = molecular target: Mast/stem cell growth factor receptor Kit (Homo sapiens) (UniProt P10721); settings: Compound concentration 100.0 nM
[11] = molecular target: Death-associated protein kinase 2 (Homo sapiens) (UniProt Q9UIK4); settings: Compound concentration 100.0 nM
[12] = molecular target: Leucine-rich repeat serine/threonine-protein kinase 2 (Homo sapiens) (UniProt Q5S007); settings: Compound concentration 100.0 nM
[13] = molecular target: Rhodopsin kinase GRK1 (Homo sapiens) (UniProt Q15835); settings: Compound concentration 100.0 nM
[14] = molecular target: Serine/threonine-protein kinase MRCK gamma (Homo sapiens) (UniProt Q6DT37); settings: Compound concentration 100.0 nM
[15] = molecular target: Cyclin-dependent kinase 13 (Homo sapiens) (UniProt Q14004); settings: Compound concentration 100.0 nM
[16] = molecular target: Mast/stem cell growth factor receptor Kit (Homo sapiens) (UniProt P10721); settings: Compound concentration 100.0 nM; remark: listed apart in the source
[17] = molecular target: Alpha-1D adrenergic receptor (Homo sapiens) (UniProt P25100); settings: Compound concentration 10.0 uM
[18] = molecular target: Serine/threonine-protein kinase PAK 5 (Homo sapiens) (UniProt Q9P286); settings: Compound concentration 100.0 nM
[19] = molecular target: D(1B) dopamine receptor (Homo sapiens) (UniProt P21918); settings: Compound concentration 10.0 uM
[20] = molecular target: Serine/threonine-protein kinase pim-1 (Homo sapiens) (UniProt P11309); settings: Compound concentration 100.0 nM
[21] = molecular target: Testis-specific serine/threonine-protein kinase 3 (Homo sapiens) (UniProt Q96PN8); settings: Compound concentration 100.0 nM
[22] = molecular target: Ankyrin repeat and protein kinase domain-containing protein 1 (Homo sapiens) (UniProt Q8NFD2); settings: Compound concentration 100.0 nM
[23] = molecular target: Calcium/calmodulin-dependent protein kinase type 1B (Homo sapiens) (UniProt Q6P2M8); settings: Compound concentration 100.0 nM
[24] = molecular target: Phosphatidylinositol 5-phosphate 4-kinase type-2 gamma (Homo sapiens) (UniProt Q8TBX8); settings: Compound concentration 100.0 nM
[25] = molecular target: Serine/threonine-protein kinase ULK3 (Homo sapiens) (UniProt Q6PHR2); settings: Compound concentration 100.0 nM
[26] = molecular target: Fibroblast growth factor receptor 3 (Homo sapiens) (UniProt P22607); settings: Compound concentration 100.0 nM
[27] = test system: Hepatocyte growth factor receptor (Homo sapiens), P08581 [M1250T]; settings: Compound concentration 100.0 nM
[28] = molecular target: Mitogen-activated protein kinase kinase kinase 6 (Homo sapiens) (UniProt O95382); settings: Compound concentration 100.0 nM
[29] = molecular target: LIM domain kinase 2 (Homo sapiens) (UniProt P53671); settings: Compound concentration 100.0 nM
[30] = molecular target: Serine/threonine-protein kinase BRSK1 (Homo sapiens) (UniProt Q8TDC3); settings: Compound concentration 100.0 nM
[31] = test system: Tyrosine-protein kinase ABL1 (Homo sapiens), P00519 [F317L]; settings: Compound concentration 100.0 nM
[32] = molecular target: Receptor-type tyrosine-protein kinase FLT3 (Homo sapiens) (UniProt P36888); settings: Compound concentration 100.0 nM
[33] = molecular target: Atypical kinase COQ8A, mitochondrial (Homo sapiens) (UniProt Q8NI60); settings: Compound concentration 100.0 nM
[34] = molecular target: Glycogen synthase kinase-3 beta (Homo sapiens) (UniProt P49841); settings: Compound concentration 100.0 nM
[35] = molecular target: Tyrosine-protein kinase Srms (Homo sapiens) (UniProt Q9H3Y6); settings: Compound concentration 100.0 nM
[36] = molecular target: Insulin receptor-related protein (Homo sapiens) (UniProt P14616); settings: Compound concentration 100.0 nM
[37] = molecular target: Beta-adrenergic receptor kinase 1 (Homo sapiens) (UniProt P25098); settings: Compound concentration 100.0 nM
[38] = molecular target: Death-associated protein kinase 1 (Homo sapiens) (UniProt P53355); settings: Compound concentration 100.0 nM
[39] = molecular target: Serine/threonine-protein kinase RIO3 (Homo sapiens) (UniProt O14730); settings: Compound concentration 100.0 nM
[40] = molecular target: Tyrosine-protein kinase CSK (Homo sapiens) (UniProt P41240); settings: Compound concentration 100.0 nM
[41] = molecular target: Death-associated protein kinase 3 (Homo sapiens) (UniProt O43293); settings: Compound concentration 100.0 nM
[42] = molecular target: Cyclin-G-associated kinase (Homo sapiens) (UniProt O14976); settings: Compound concentration 100.0 nM
[43] = molecular target: Cyclin-dependent kinase-like 3 (Homo sapiens) (UniProt Q8IVW4); settings: Compound concentration 100.0 nM
[44] = molecular target: Mitogen-activated protein kinase 11 (Homo sapiens) (UniProt Q15759); settings: Compound concentration 100.0 nM
Mitogen-activated protein kinase 11 (Homo sapiens), sequence (Q15759 whole entry): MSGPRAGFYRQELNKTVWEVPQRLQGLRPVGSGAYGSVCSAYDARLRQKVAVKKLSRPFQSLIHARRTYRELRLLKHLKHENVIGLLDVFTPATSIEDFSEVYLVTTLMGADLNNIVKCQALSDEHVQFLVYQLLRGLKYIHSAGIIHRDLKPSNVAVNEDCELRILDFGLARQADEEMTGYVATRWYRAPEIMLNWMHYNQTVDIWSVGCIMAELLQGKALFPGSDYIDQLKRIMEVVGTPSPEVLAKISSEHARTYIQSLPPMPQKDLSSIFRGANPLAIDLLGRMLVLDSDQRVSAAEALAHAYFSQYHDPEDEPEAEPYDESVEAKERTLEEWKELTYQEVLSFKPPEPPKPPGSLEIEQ

Mast/stem cell growth factor receptor Kit (Homo sapiens), sequence (P10721 whole entry): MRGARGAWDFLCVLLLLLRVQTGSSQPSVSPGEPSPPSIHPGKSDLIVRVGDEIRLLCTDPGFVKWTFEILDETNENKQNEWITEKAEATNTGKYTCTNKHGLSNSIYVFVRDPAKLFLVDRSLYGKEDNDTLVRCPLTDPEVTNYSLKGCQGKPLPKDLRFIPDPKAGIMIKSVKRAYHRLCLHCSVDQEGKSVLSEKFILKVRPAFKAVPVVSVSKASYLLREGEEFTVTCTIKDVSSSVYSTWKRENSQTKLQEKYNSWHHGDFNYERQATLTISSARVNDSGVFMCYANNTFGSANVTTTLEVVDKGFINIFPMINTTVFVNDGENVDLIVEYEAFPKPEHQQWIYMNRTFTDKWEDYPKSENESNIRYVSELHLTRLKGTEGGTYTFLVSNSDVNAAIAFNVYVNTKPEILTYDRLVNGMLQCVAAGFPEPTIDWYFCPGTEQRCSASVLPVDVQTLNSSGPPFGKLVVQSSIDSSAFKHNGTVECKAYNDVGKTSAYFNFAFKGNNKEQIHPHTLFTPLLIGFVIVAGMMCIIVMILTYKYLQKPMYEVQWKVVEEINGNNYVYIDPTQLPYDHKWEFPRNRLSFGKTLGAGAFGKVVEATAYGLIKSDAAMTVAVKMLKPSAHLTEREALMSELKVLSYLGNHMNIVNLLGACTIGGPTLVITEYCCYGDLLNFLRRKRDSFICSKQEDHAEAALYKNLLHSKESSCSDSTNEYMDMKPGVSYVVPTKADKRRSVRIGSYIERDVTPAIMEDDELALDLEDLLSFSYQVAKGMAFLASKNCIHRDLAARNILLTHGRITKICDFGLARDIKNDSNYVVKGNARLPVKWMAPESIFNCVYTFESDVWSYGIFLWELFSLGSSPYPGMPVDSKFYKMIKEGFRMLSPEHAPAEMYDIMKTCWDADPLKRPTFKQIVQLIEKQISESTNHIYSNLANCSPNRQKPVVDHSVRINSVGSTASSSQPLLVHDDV
Death-associated protein kinase 1 (Homo sapiens), sequence (P53355 whole entry, looked up): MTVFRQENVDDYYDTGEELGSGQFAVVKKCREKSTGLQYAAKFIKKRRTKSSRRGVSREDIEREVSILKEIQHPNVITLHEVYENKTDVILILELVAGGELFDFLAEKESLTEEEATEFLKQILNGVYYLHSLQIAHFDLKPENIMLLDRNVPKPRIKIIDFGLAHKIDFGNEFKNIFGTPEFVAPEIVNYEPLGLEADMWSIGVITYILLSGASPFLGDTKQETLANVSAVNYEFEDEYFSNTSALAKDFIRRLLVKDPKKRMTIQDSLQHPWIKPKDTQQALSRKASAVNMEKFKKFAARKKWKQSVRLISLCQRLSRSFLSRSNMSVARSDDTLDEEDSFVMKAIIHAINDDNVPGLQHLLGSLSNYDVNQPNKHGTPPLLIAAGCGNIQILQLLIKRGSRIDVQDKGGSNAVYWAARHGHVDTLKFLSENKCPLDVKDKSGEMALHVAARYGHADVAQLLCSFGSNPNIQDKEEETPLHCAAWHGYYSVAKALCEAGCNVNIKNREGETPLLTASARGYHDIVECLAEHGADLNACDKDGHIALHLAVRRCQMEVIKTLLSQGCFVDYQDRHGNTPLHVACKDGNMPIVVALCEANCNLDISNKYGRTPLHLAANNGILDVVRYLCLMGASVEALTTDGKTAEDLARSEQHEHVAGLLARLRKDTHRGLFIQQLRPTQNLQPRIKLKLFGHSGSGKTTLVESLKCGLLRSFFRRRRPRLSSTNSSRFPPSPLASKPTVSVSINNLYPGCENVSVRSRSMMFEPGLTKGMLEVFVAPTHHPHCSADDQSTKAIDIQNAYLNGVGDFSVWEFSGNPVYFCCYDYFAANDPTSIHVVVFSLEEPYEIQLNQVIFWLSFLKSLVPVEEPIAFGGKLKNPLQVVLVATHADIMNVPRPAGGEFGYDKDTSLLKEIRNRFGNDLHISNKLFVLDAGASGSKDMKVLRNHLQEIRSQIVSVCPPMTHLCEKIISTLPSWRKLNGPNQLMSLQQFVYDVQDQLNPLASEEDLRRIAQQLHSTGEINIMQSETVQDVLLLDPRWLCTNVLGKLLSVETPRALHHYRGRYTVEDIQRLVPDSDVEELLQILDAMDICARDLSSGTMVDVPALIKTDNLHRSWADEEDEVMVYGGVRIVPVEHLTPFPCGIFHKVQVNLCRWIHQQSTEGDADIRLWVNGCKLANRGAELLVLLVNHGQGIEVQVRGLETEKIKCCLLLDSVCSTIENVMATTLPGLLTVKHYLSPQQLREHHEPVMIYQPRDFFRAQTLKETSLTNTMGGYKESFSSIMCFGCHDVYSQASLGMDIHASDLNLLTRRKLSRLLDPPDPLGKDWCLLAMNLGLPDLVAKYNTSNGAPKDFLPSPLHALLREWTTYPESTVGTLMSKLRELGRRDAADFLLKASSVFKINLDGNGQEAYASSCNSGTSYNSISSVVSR
Tyrosine-protein kinase ABL1 (Homo sapiens), P00519 [E255K], sequence (P00519 whole entry E255K): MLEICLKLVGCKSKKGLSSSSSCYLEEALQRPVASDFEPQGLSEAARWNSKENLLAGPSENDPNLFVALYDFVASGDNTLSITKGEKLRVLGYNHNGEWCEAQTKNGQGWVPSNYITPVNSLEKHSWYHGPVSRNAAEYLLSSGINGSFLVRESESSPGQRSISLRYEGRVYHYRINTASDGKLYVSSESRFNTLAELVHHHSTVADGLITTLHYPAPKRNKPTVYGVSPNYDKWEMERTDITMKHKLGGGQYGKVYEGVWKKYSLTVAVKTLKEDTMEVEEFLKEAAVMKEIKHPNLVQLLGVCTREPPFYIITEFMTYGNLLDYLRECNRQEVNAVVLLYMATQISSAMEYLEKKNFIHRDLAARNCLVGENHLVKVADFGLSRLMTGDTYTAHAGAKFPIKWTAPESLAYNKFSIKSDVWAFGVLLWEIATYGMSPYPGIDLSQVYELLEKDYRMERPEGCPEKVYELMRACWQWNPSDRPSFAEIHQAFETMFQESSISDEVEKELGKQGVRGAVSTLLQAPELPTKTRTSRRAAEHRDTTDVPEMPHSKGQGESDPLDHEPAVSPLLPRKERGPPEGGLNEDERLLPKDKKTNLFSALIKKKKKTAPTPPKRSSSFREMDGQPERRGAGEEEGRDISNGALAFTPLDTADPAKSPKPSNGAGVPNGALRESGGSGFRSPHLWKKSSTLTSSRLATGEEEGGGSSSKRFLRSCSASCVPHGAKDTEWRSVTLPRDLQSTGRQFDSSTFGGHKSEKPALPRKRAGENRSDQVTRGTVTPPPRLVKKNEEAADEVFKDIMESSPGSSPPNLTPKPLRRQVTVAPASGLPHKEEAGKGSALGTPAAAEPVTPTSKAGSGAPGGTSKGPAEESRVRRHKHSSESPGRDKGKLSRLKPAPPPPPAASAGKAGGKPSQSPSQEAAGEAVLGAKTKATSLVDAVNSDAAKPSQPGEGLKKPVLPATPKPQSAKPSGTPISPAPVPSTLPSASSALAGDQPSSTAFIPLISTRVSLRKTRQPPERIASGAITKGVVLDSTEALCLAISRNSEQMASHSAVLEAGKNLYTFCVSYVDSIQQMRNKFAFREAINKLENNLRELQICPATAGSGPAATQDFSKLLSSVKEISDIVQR
Alpha-1D adrenergic receptor (Homo sapiens), sequence (P25100 whole entry): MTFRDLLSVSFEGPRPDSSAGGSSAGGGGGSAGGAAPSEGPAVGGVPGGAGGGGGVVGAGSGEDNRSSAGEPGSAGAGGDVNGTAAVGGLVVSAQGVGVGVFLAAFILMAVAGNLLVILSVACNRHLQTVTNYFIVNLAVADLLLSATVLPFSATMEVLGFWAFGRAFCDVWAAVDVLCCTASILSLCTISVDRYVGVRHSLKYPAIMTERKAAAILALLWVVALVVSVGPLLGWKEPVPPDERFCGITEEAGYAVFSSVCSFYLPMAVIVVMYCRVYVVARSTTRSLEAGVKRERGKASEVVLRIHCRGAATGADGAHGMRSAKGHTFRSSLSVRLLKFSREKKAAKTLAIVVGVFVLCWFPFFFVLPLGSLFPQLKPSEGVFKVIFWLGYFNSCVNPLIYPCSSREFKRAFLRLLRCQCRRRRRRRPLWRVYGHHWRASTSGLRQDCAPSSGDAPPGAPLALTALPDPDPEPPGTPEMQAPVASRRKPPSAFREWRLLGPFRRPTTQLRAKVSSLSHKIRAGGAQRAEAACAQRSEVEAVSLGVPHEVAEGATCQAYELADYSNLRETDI
Sodium-dependent serotonin transporter (Homo sapiens), sequence (P31645 whole entry, looked up): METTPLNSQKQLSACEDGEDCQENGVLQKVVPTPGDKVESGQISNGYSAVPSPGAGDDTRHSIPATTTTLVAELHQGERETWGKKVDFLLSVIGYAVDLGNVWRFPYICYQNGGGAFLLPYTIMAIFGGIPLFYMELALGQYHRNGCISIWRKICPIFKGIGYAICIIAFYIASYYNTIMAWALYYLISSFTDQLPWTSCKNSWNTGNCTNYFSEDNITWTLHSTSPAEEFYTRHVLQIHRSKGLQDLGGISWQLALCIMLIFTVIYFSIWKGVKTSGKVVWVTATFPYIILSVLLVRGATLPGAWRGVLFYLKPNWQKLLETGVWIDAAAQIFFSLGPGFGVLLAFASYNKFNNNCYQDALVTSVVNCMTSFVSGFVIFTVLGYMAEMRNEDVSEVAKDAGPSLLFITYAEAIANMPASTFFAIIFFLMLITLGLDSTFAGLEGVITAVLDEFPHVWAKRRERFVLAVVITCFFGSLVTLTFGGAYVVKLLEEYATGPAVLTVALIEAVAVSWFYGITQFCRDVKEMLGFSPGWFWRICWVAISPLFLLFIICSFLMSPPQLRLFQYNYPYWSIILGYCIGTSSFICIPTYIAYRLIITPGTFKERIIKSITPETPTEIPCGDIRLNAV

SMILES: O=C(NCCCC1CCCCC1)c1ccc(CNC(=O)c2cnn(-c3ccccc3)c2C(F)(F)F)cc1 [SR-321]
- residual activity [1]: 88%
- residual activity [2]: 92%
- residual activity [3]: 100%
- residual activity [4]: 100%
- residual activity [5]: 100%
- residual activity [6]: 100%
- residual activity [7]: 100%
- inhibition [8]: 14%
- inhibition [9]: 0.18%
- residual activity [10]: 100%
- residual activity [11]: 98%
- residual activity [12]: 57%
- residual activity [13]: 94%
- residual activity [14]: 99%
- residual activity [15]: 100%
- residual activity [16]: 100%
- inhibition [17]: 10.1%
- residual activity [18]: 100%
- inhibition [19]: 23.2%
- residual activity [20]: 100%
- residual activity [21]: 100%
- residual activity [22]: 100%
- residual activity [23]: 79%
- residual activity [24]: 99%
- residual activity [25]: 100%
- residual activity [26]: 100%
- residual activity [27]: 76%
- residual activity [28]: 100%
- residual activity [29]: 100%
- residual activity [30]: 100%
- residual activity [31]: 82%
- residual activity [32]: 87%
- residual activity [33]: 100%
- residual activity [34]: 100%
- residual activity [35]: 93%
- residual activity [36]: 100%
- residual activity [37]: 100%
- residual activity [38]: 100%
- residual activity [39]: 100%
- residual activity [40]: 100%
- residual activity [41]: 92%
- residual activity [42]: 100%
- residual activity [43]: 100%
- residual activity [44]: 100%

SMILES: Nc1c(C(=O)NCc2ccc(C(=O)NCCCC3CCCCC3)cc2)cnn1-c1ccccc1 [SR-318]
- residual activity [1]: 100%
- residual activity [2]: 100%
- residual activity [3]: 100%
- residual activity [4]: 100%
- residual activity [5]: 44%
- residual activity [6]: 100%
- residual activity [7]: 85%
- inhibition [8]: 13.3%
- inhibition [9]: 7.75%
- residual activity [10]: 100%
- residual activity [11]: 100%
- residual activity [12]: 39%
- residual activity [13]: 100%
- residual activity [14]: 100%
- residual activity [15]: 79%
- residual activity [16]: 70%
- inhibition [17]: 22%
- residual activity [18]: 100%
- inhibition [19]: 28.4%
- residual activity [20]: 93%
- residual activity [21]: 100%
- residual activity [22]: 100%
- residual activity [23]: 100%
- residual activity [24]: 100%
- residual activity [25]: 100%
- residual activity [26]: 100%
- residual activity [27]: 100%
- residual activity [28]: 100%
- residual activity [29]: 100%
- residual activity [30]: 94%
- residual activity [31]: 100%
- residual activity [32]: 90%
- residual activity [33]: 100%
- residual activity [34]: 100%
- residual activity [35]: 100%
- residual activity [36]: 100%
- residual activity [37]: 100%
- residual activity [38]: 92%
- residual activity [39]: 100%
- residual activity [40]: 100%
- residual activity [41]: 100%
- residual activity [42]: 100%
- residual activity [43]: 97%
- residual activity [44]: 3.4%
